Results published in paper PMC6832219, “Synthesis of Novel Baicalein Amino Acid Derivatives and Biological Evaluation as Neuroprotective Agents” (Molecules, 2019).
Read-outs that look alike come from different tables or passages of the source.

Legend:
H9C2 cells [1] = test: Toxicity on normal H9C2 cells (MTT assay); type: cell-based; details: MTT; for Survival Rate (%) / viability at 6.25 µM / viability at 12.5 µM / viability at 25 µM / viability at 50 µM: H9C2 cells; for IC50: normal H9C2 cells; for viability at 6.25 µM / viability at 12.5 µM / viability at 25 µM / viability at 50 µM: read-out: Survival Rate (%)
Procedure: To study cytotoxicity on normal cells, the cytotoxicity of compounds against normal H9C2 cells were tested.
(§1) The SH-SY5Y ([…]) and H9C2 ([…]) cell lines were obtained from the Chinese Academy of Medical Sciences and Peking Union Medical College. All of the cell lines were grown in dulbecco’s modified eagle medium (DMEM) with 10% (v/v) fetal bovine serum (FBS) and 1% (v/v) penicillin/streptomycin (Thermo Technologies, New York, NY, USA), under a humidified atmosphere containing 5% CO2 at 37 °C. The baicalein derivatives were dissolved in DMSO (Sigma, St. Louis, MO, USA) and added at various concentrations to the cell culture.
(§2) The protective effect of these compounds was evaluated on SH-SY5Y and H9C2 cell lines via the MTT method. The cells growing in the logarithmic phase were cultured in 96-well plates at a density 3 × 10^3 cells/well and incubated for 24 h. Then each well was treated with the required concentrations (50 µM concentrations, 25 µM concentrations, 12.5µM concentrations, 6.25 µM concentrations, and 3.125 µM concentrations) of baicalein derivatives, and incubated 36 h at 37 °C with 5% CO2. After that, the cells were induced by H2O2 (final concentration, […]) for 12 h. Control-differentiated cells were injected with new growth media at equal amounts. Before […] MTT solution (5 mg/mL) was added to each well, the cell culture fluid was discarded, and […] fresh cell culture fluid was added. The plate was incubated for a further 4 h at 37 °C. The cell supernatant medium was removed carefully, without disturbing the attached cells, and formazan crystals were solubilized by adding 150 μL DMSO into each well. The absorbance was measured at 490 nm with a plate reader (BIORAD 550 spectrophotometer, Bio-rad Life Science Development Ltd., Beijing, China). H2O2 was dissolved in DMEM medium. Wells without drugs were used as blanks. The EC50 values were defined as the concentrations that causes the maximum effect of 50%; IC50 values were defined as the concentration of compound which gives 50% growth inhibition, and were calculated using the GraphPad Prism 5. The proliferation rates of damaged SH-SY5Y cells were calculated in the following formula (1): [OD490 (compound) − OD490 (CoCl2)]/[OD490 (NGF) − OD490 (CoCl2)] × 100%(1) The EC50 values were using the equation −pEC50 = log Cmax − log 2 × (ΣP − 0.75 + 0.25Pmax + 0.25Pmin)(2) where Cmax is the maximum concentration, ΣP is the sum of proliferation rates, Pmax is the maximum value of the proliferation rate, and Pmin is the minimum value of the proliferation rate. Cell viability was expressed as a percentage of the control.
The inhibition rate was calculated in the following equation: % inhibition = 1 − (Sample group OD/Control group OD) × 100%(3)

injured SH-SY5Y cells = test: Protective effect against tert-butyl hydroperoxide-induced SH-SY5Y neurotoxicity cells (MTT assay); type: cell-based; details: for Proliferation Rate (%) / viability at 3.125 µM / viability at 6.25 µM / viability at 12.5 µM / viability at 25 µM / viability at 50 µM: injured SH-SY5Y cells; for EC50: tert-butyl hydroperoxide-induced SH-SY5Y neurotoxicity, read-out: EC50 for protecting injured SH-SY5Y cells; for viability at 3.125 µM / viability at 6.25 µM / viability at 12.5 µM / viability at 25 µM / viability at 50 µM: read-out: Proliferation Rate (%);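 as to Proliferation Rate (%): 0% equals CoCl2-injured cells and 100% equals NGF-treated cells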
Procedure: The protective effects of baicalein derivatives in vitro was evaluated against tert-butyl, hydroperoxide-induced, SH-SY5Y neurotoxicity cells using an MTT assay. In addition, their toxicity evaluation was tested on normal H9C2 cells. The resulting proliferation rates (%) at different concentrations, as well as their 50% effective concentrations (EC50) for protecting damaged SH-SY5Y cells of the baicalein amino acid derivatives, are summarized in Table 2.
as §1, §2

H9C2 cells [2] = test: Toxicity on normal H9C2 cells (MTT assay); type: cell-based; details: for Survival Rate (%): 100 µM; for viability at 100 µM: read-out: Survival Rate (%)

| melting point | Compound | Survival Rate (%) (H9C2 cells [1]; 6.25 µM) | Survival Rate (%) (H9C2 cells [1]; 12.5 µM) | Survival Rate (%) (H9C2 cells [1]; 25 µM) | Survival Rate (%) (H9C2 cells [1]; 50 µM) | IC50 (H9C2 cells [1]) | Proliferation Rate (%) (injured SH-SY5Y cells; 3.125 µM) | Proliferation Rate (%) (injured SH-SY5Y cells; 6.25 µM) | Proliferation Rate (%) (injured SH-SY5Y cells; 12.5 µM) | viability at 6.25 µM (H9C2 cells [1]; 6.25 µM) | viability at 12.5 µM (H9C2 cells [1]; 12.5 µM) | viability at 25 µM (H9C2 cells [1]; 25 µM) | viability at 50 µM (H9C2 cells [1]; 50 µM) | viability at 3.125 µM (injured SH-SY5Y cells; Homo sapiens, 3.125 µM) | viability at 6.25 µM (injured SH-SY5Y cells; Homo sapiens, 6.25 µM) | viability at 12.5 µM (injured SH-SY5Y cells; Homo sapiens, 12.5 µM) | viability at 25 µM (injured SH-SY5Y cells; Homo sapiens, 25 µM) | viability at 50 µM (injured SH-SY5Y cells; Homo sapiens, 50 µM) | EC50 (injured SH-SY5Y cells; Homo sapiens) | viability at 100 µM (H9C2 cells [2]) | other results |
| --- | --- | --- | --- | --- | --- | --- | --- | --- | --- | --- | --- | --- | --- | --- | --- | --- | --- | --- | --- | --- | --- |
| – | 1-tert-butyl 2-(5,7-dihydroxy-4-oxo-2-phenyl-chroman-6-yl) pyrrolidine-1,2-dicarboxylate [Compound 11] | 70.98% | 67.32% | 61.98% | 60.67% | 95.2 µM | 47.94% | 86.25% | 78.16% | – | – | – | – | – | – | – | – | – | – | – | Proliferation Rate (%) (injured SH-SY5Y cells; 25 µM): 74.48%; Proliferation Rate (%) (injured SH-SY5Y cells; 50 µM): 64.80%; EC50 (injured SH-SY5Y cells): 5.82 µM; Survival Rate (%) (H9C2 cells [2]): 45.75% |
| – | 5,6-dihydroxy-4-oxo-2-phenyl-chroman-7-yl 2-{[(tert-butoxy)carbonyl]amino}-3-methyl-pentanoate [Compound 10] | 194.73% | 179.84% | 169.33% | 152.13% | > 100 µM | 75.23% | 77.21% | 79.27% | – | – | – | – | – | – | – | – | – | – | – | Proliferation Rate (%) (injured SH-SY5Y cells; 25 µM): 74.55%; Proliferation Rate (%) (injured SH-SY5Y cells; 50 µM): 63.22%; EC50 (injured SH-SY5Y cells): 5.07 µM; Survival Rate (%) (H9C2 cells [2]): 141.70% |
| – | O=c1cc(-c2ccccc2)oc2cc(O)c(O)c(O)c12 [Baicalein, 5,6,7-trihydroxyflavone] | – | – | – | – | > 100 µM | – | – | – | 212% | 198% | 179% | 170% | 54.7% | 35.1% | 29.9% | 28.4% | 11.7% | 24.8 µM | 168% | – |
| 199.7 °C | CC(C)C(NC(=O)OCc1ccccc1)C(=O)Oc1c(O)cc2oc(-c3ccccc3)cc(=O)c2c1O (stereo not drawn) [Compound 1, 5,7-dihydroxy-4-oxo-2-phenyl-4H-chromen-6-yl 2-{[(benzyloxy)carbonyl]amino}-3-methylbutanoate] | – | – | – | – | > 100 µM | – | – | – | 270% | 260% | 231% | 216% | 56% | 84.3% | 81.8% | 67.3% | 54.9% | 6.07 µM | 204% | – |
| 195.8 °C | CC(C)(C)C(NC(=O)OCc1ccccc1)C(=O)Oc1cc2oc(-c3ccccc3)cc(=O)c2c(O)c1OC(=O)C(NC(=O)OCc1ccccc1)C(C)(C)C (stereo not drawn) [Compound 2] | – | – | – | – | > 100 µM | – | – | – | 213% | 150% | 133% | 112% | 45.1% | 48.2% | 81% | 107% | 94.2% | 4.79 µM | 108% | – |
| 170.1 °C | CC(C)(C)C(NC(=O)OCc1ccccc1)C(=O)Oc1c(O)cc2oc(-c3ccccc3)cc(=O)c2c1O (stereo not drawn) [Compound 3, 5,7-dihydroxy-4-oxo-2-phenyl-4H-chromen-6-yl 2-{[(benzyloxy)carbonyl]amino}-3,3-dimethylbutanoate] | – | – | – | – | > 100 µM | – | – | – | 144% | 137% | 135% | 132% | 15.3% | 14.8% | 8.1% | 0.15% | -0.18% | 62.4 µM | 104% | – |
